# Test results reported in patent publication US20230096085A1 (priority 2020, published 2023).
# Where two headings read alike, the source gives them in different places.
# Test system: rice blast fungus
# Assay type: cell-based
# Details: for Preventive value: 1,000 μl on oatmeal culture medium, 25° C. for 7 days, elongation length of hyphae vs without treatment
compound,measurement,setting,value
"COc1nc(-c2ccc3cnccc3n2)nc(F)c1C(F)(F)F [Example 4, 6-fluoro-4-methoxy-2-(2-(1,6-naphthyridyl))-5-trifluoromethylpyrimidine]",control activity against rice blast fungus,conclusion from the results in Table 1,has a control activity against rice blast fungus
same,Preventive value,test solution concentration 1000 ppm,76
same,Preventive value,test solution concentration 2000 ppm,100
